Source: patent publication US20250129062A1, “AMORPHOUS SUBSTANCES, CRYSTALS, PHARMACEUTICAL COMPOSITIONS, PREPARATION METHODS AND USES OF THIOHYDANTOIN COMPOUND OR PHARMACEUTICALLY ACCEPTABLE SALT THEREOF” (SUZHOU KINTOR PHARMACEUTICALS, INC., priority 2021, published 2025)
Values after ≈ are worked out from the molar mass of the structure shown. Like-named read-outs stand apart in the source and are kept apart here.

Assay: Solubility of amorphous substance in solvent systems (supersaturated solution, oscillated 24 h at room temperature, HPLC)
Assay type: physicochemical
Details: for solubility at 24 h: thermodynamic from solid
Protocol: The amorphous substance of the compound of formula I was prepared into supersaturated solutions with different solvents, and oscillated under a room temperature condition (a constant temperature). After oscillating for 24 h, sampling was performed, and the content of the sample was detected by HPLC under condition 1.
Condition 1: • Chromatographic column: C18 (150 mm×4.6 mm×3.5 μm); • Mobile phase: binary mobile phase system, mobile phase A was 0.1% formic acid in water, mobile phase B was acetonitrile; • Elution time: 68 min; • Elution mode: gradient elution (in the gradient elution process, mobile phase A had the maximum volume percentage of 95% and the minimum volume percentage of 10%); • Detection wavelength: 270 nm.

`Cc1ncsc1-c1ccc(CNC(=O)[C@@H]2C[C@@H](O)CN2C(=O)[C@@H](NC(=O)COCCCCOc2ccc(-c3ccc(N4C(=S)N(c5ccc(C#N)c(C(F)(F)F)c5F)C(=O)C4(C)C)cn3)cc2)C(C)(C)C)cc1` showed a Solubility (Dehydrated alcohol 35%-propylene glycol 45%-water 20% (w/w)) of over 154310 µg/mL, a Solubility (Dehydrated alcohol 40%-propylene glycol 50%-water 10% (w/w)) of over 64560 µg/mL and a solubility at 24 h (dehydrated alcohol 10%-propylene glycol 20%-water 70% (w/w), aqueous with cosolvent or surfactant or cyclodextrin, Dehydrated alcohol 10%-propylene glycol 20%-water 70% (w/w), read-out: Solubility) of 30 µg/mL (≈ 0.0288 mM). For the same molecule, the solubility at 24 h (dehydrated alcohol 10%-propylene glycol 30%-water 60% (w/w), aqueous with cosolvent or surfactant or cyclodextrin, Dehydrated alcohol 10%-propylene glycol 30%-water 60% (w/w), read-out: Solubility) was 450 µg/mL (≈ 0.431 mM), the solubility at 24 h (dehydrated alcohol 10%: water 90% (w/w), aqueous with cosolvent or surfactant or cyclodextrin, Dehydrated alcohol 10%: water 90% (w/w), read-out: 24 h solubility) was 140 µg/mL (≈ 0.134 mM) and the solubility at 24 h (dehydrated alcohol 20%-propylene glycol 20%-water 60% (w/w), aqueous with cosolvent or surfactant or cyclodextrin, Dehydrated alcohol 20%-propylene glycol 20%-water 60% (w/w), read-out: Solubility) was 80 µg/mL (≈ 0.0767 mM). The solubility at 24 h (dehydrated alcohol 20%-propylene glycol 30%-water 50% (w/w), aqueous with cosolvent or surfactant or cyclodextrin, Dehydrated alcohol 20%-propylene glycol 30%-water 50% (w/w), read-out: Solubility) was 440 µg/mL (≈ 0.422 mM), the solubility at 24 h (dehydrated alcohol 20%-propylene glycol 40%-water 40% (w/w), aqueous with cosolvent or surfactant or cyclodextrin, Dehydrated alcohol 20%-propylene glycol 40%-water 40% (w/w), read-out: Solubility) was 3790 µg/mL (≈ 3.63 mM) and the solubility at 24 h (dehydrated alcohol 20%-propylene glycol 50%-water 30% (w/w), aqueous with cosolvent or surfactant or cyclodextrin, Dehydrated alcohol 20%-propylene glycol 50%-water 30% (w/w), read-out: Solubility) was 12600 µg/mL (≈ 12.1 mM). For the same molecule, the solubility at 24 h (dehydrated alcohol 20%: water 80% (w/w), aqueous with cosolvent or surfactant or cyclodextrin, Dehydrated alcohol 20%: water 80% (w/w), read-out: 24 h solubility) was 140 µg/mL (≈ 0.134 mM), the solubility at 24 h (dehydrated alcohol 30%: water 70% (w/w), aqueous with cosolvent or surfactant or cyclodextrin, Dehydrated alcohol 30%: water 70% (w/w), read-out: 24 h solubility) was 110 µg/mL (≈ 0.105 mM) and the solubility at 24 h (dehydrated alcohol 35%-propylene glycol 45%-water 20% (w/w), aqueous with cosolvent or surfactant or cyclodextrin, Dehydrated alcohol 35%-propylene glycol 45%-water 20% (w/w), read-out: Solubility) was over 154000 µg/mL. The solubility at 24 h (dehydrated alcohol 40%-propylene glycol 50%-water 10% (w/w), aqueous with cosolvent or surfactant or cyclodextrin, Dehydrated alcohol 40%-propylene glycol 50%-water 10% (w/w), read-out: Solubility) was over 64600 µg/mL, the solubility at 24 h (dehydrated alcohol 40%: water 60% (w/w), aqueous with cosolvent or surfactant or cyclodextrin, Dehydrated alcohol 40%: water 60% (w/w), read-out: 24 h solubility) was 510 µg/mL (≈ 0.489 mM) and the solubility at 24 h (dehydrated alcohol 60%: water 40% (w/w), organic solvent or mixture, Dehydrated alcohol 60%: water 40% (w/w), read-out: 24 h solubility) was 26000 µg/mL (≈ 24.9 mM). The solubility at 24 h (dehydrated alcohol 70%: water 30% (w/w), organic solvent or mixture, Dehydrated alcohol 70%: water 30% (w/w), read-out: 24 h solubility) was over 34900 µg/mL, the solubility at 24 h (dehydrated alcohol 80%: water 20% (w/w), organic solvent or mixture, Dehydrated alcohol 80%: water 20% (w/w), read-out: 24 h solubility) was over 42100 µg/mL and the solubility at 24 h (dehydrated alcohol 90%: water 10% (w/w), organic solvent or mixture, Dehydrated alcohol 90%: water 10% (w/w), read-out: 24 h solubility) was over 77700 µg/mL. It also gave a solubility at 24 h (dehydrated alcohol, organic solvent or mixture, solvent: Dehydrated alcohol, read-out: 24 h solubility) of over 54000 µg/mL, a solubility at 24 h (dehydrated alcohol-PEG400-water solvent mixture, aqueous with cosolvent or surfactant or cyclodextrin, Dehydrated alcohol 10%-PEG400 10%-water 80% (w/w), read-out: Solubility) of 10 µg/mL (≈ 0.00959 mM) and a solubility at 24 h (dehydrated alcohol-PEG400-water solvent mixture, aqueous with cosolvent or surfactant or cyclodextrin, Dehydrated alcohol 10%-PEG400 20%-water 70% (w/w), read-out: Solubility) of 20 µg/mL (≈ 0.0192 mM). The solubility at 24 h (dehydrated alcohol-PEG400-water solvent mixture, aqueous with cosolvent or surfactant or cyclodextrin, Dehydrated alcohol 20%-PEG400 20%-water 60% (w/w), read-out: Solubility) was 160 µg/mL (≈ 0.153 mM), the solubility at 24 h (dehydrated alcohol-PEG400-water solvent mixture, aqueous with cosolvent or surfactant or cyclodextrin, Dehydrated alcohol 20%-PEG400 30%-water 50% (w/w), read-out: Solubility) was 910 µg/mL (≈ 0.872 mM) and the solubility at 24 h (dehydrated alcohol-PEG400-water solvent mixture, aqueous with cosolvent or surfactant or cyclodextrin, Dehydrated alcohol 20%-PEG400 40%-water 40% (w/w), read-out: Solubility) was 7900 µg/mL (≈ 7.57 mM). The solubility at 24 h (dehydrated alcohol-PEG400-water solvent mixture, aqueous with cosolvent or surfactant or cyclodextrin, Dehydrated alcohol 30%-PEG400 10%-water 60% (w/w), read-out: Solubility) was 310 µg/mL (≈ 0.297 mM), the solubility at 24 h (dehydrated alcohol-PEG400-water solvent mixture, aqueous with cosolvent or surfactant or cyclodextrin, Dehydrated alcohol 30%-PEG400 20%-water 50% (w/w), read-out: Solubility) was 1950 µg/mL (≈ 1.87 mM) and the solubility at 24 h (dehydrated alcohol-PEG400-water solvent mixture, aqueous with cosolvent or surfactant or cyclodextrin, Dehydrated alcohol 30%-PEG400 30%-water 40% (w/w), read-out: Solubility) was 11600 µg/mL (≈ 11.1 mM). For the same molecule, the solubility at 24 h (dehydrated alcohol-PEG400-water solvent mixture, aqueous with cosolvent or surfactant or cyclodextrin, Dehydrated alcohol 30%-PEG400 40%-water 30% (w/w), read-out: Solubility) was 89200 µg/mL (≈ 85.5 mM), the solubility at 24 h (dehydrated alcohol-PEG400-water solvent mixture, aqueous with cosolvent or surfactant or cyclodextrin, Dehydrated alcohol 35%-PEG400 30%-water 35% (w/w), read-out: Solubility) was 35700 µg/mL (≈ 34.2 mM) and the solubility at 24 h (dehydrated alcohol-PEG400-water solvent mixture, aqueous with cosolvent or surfactant or cyclodextrin, Dehydrated alcohol 35%-PEG400 35%-water 30% (w/w), read-out: Solubility) was 117000 µg/mL (≈ 112 mM). The solubility at 24 h (dehydrated alcohol-PEG400-water solvent mixture, aqueous with cosolvent or surfactant or cyclodextrin, Dehydrated alcohol 35%-PEG400 40%-water 25% (w/w), read-out: Solubility) was over 181000 µg/mL, the solubility at 24 h (dehydrated alcohol-PEG400-water solvent mixture, aqueous with cosolvent or surfactant or cyclodextrin, Dehydrated alcohol 35%-PEG400 45%-water 20% (w/w), read-out: Solubility) was over 258000 µg/mL and the solubility at 24 h (dehydrated alcohol-PEG400-water solvent mixture, aqueous with cosolvent or surfactant or cyclodextrin, Dehydrated alcohol 40%-PEG400 10%-water 50% (w/w), read-out: Solubility) was 3350 µg/mL (≈ 3.21 mM). The solubility at 24 h (dehydrated alcohol-PEG400-water solvent mixture, aqueous with cosolvent or surfactant or cyclodextrin, Dehydrated alcohol 40%-PEG400 20%-water 40% (w/w), read-out: Solubility) was 17400 µg/mL (≈ 16.7 mM), the solubility at 24 h (dehydrated alcohol-PEG400-water solvent mixture, aqueous with cosolvent or surfactant or cyclodextrin, Dehydrated alcohol 40%-PEG400 30%-water 30% (w/w), read-out: Solubility) was 111000 µg/mL (≈ 106 mM) and the solubility at 24 h (dehydrated alcohol-PEG400-water solvent mixture, aqueous with cosolvent or surfactant or cyclodextrin, Dehydrated alcohol 40%-PEG400 40%-water 20% (w/w), read-out: Solubility) was over 49100 µg/mL. The solubility at 24 h (dehydrated alcohol-PEG400-water solvent mixture, aqueous with cosolvent or surfactant or cyclodextrin, Dehydrated alcohol 50%-PEG400 30%-water 20% (w/w), read-out: Solubility) was over 49700 µg/mL, the solubility at 24 h (dehydrated alcohol-PEG400-water solvent mixture, aqueous with cosolvent or surfactant or cyclodextrin, Dehydrated alcohol 50%-PEG400 40%-water 10% (w/w), read-out: Solubility) was over 48500 µg/mL and the solubility at 24 h (dehydrated alcohol-propylene glycol-water solvent mixture, aqueous with cosolvent or surfactant or cyclodextrin, Dehydrated alcohol 10%-propylene glycol 40%-water 50% (w/w), read-out: Solubility) was 540 µg/mL (≈ 0.518 mM). The solubility at 24 h (dehydrated alcohol-propylene glycol-water solvent mixture, aqueous with cosolvent or surfactant or cyclodextrin, Dehydrated alcohol 10%-propylene glycol 50%-water 40% (w/w), read-out: Solubility) was 1490 µg/mL (≈ 1.43 mM), the solubility at 24 h (dehydrated alcohol-propylene glycol-water solvent mixture, aqueous with cosolvent or surfactant or cyclodextrin, Dehydrated alcohol 20%-propylene glycol 10%-water 70% (w/w), read-out: Solubility) was 40 µg/mL (≈ 0.0383 mM) and the solubility at 24 h (dehydrated alcohol-propylene glycol-water solvent mixture, aqueous with cosolvent or surfactant or cyclodextrin, Dehydrated alcohol 30%-propylene glycol 10%-water 60% (w/w), read-out: Solubility) was 200 µg/mL (≈ 0.192 mM). For the same molecule, the solubility at 24 h (dehydrated alcohol-propylene glycol-water solvent mixture, aqueous with cosolvent or surfactant or cyclodextrin, Dehydrated alcohol 30%-propylene glycol 20%-water 50% (w/w), read-out: Solubility) was 2520 µg/mL (≈ 2.42 mM), the solubility at 24 h (dehydrated alcohol-propylene glycol-water solvent mixture, aqueous with cosolvent or surfactant or cyclodextrin, Dehydrated alcohol 30%-propylene glycol 30%-water 40% (w/w), read-out: Solubility) was 6390 µg/mL (≈ 6.13 mM) and the solubility at 24 h (dehydrated alcohol-propylene glycol-water solvent mixture, aqueous with cosolvent or surfactant or cyclodextrin, Dehydrated alcohol 30%-propylene glycol 40%-water 30% (w/w), read-out: Solubility) was 25200 µg/mL (≈ 24.2 mM). The solubility at 24 h (dehydrated alcohol-propylene glycol-water solvent mixture, aqueous with cosolvent or surfactant or cyclodextrin, Dehydrated alcohol 30%-propylene glycol 50%-water 20% (w/w), read-out: Solubility) was over 178000 µg/mL.
